Here are results for 7 compounds from EP0183174A2, “Substituted phenoxy urea, processes for its preparation and herbicide containing it as active ingredient” (KUMIAI CHEMICAL INDUSTRY CO., LTD., priority 1984, dated 1986).

The test system of data set [1] is barnyardgrass (Echinochloa crus-galli L.). Put plainly: Test Example 1: herbicidal test by water treatment in a paddy field. The data set is classed as in vivo. Conditions: evaluated thirty days after application. Set-up: key: 5: Withered; 4.5: Herbicidal effect (or phytotoxicity) in a range of 90 to 99%; 4: Herbicidal effect (or phytotoxicity) in a range of 80 to 89%; 3.5: Herbicidal effect (or phytotoxicity) in a range of 70 to 79%; 3: Herbicidal effect (or phytotoxicity) in a range of 60 to 69%; 2.5: Herbicidal effect (or phytotoxicity) in a range of 50 to 59%; 2: Herbicidal effect (or phytotoxicity) in a range of 40 to 49%; 1.5: Herbicidal effect (or phytotoxicity) in a range of 30 to 39%; 1: Herbicidal effect (or phytotoxicity) in a range of 20 to 29%; 0.5: Herbicidal effect (or phytotoxicity) in a range of 1 to 19%; 0: No herbicidal effect (or no phytotoxicity). Here is the method: (§1) Into each porcelain pot having a diameter of 10 cm, paddy soil was filled and puddled, and seeds of barnyardgrass (Echinochloa crus-galli L.), smallflower flatsedge, monochoria and Japanese bulrush were sown, and water was filled in a-depth of 3 cm. One day later, a predetermined amount of the wettable powder prepared in Formulation Example 3 and diluted with water was dropwise applied to the surface of the water (dose of the active ingredient: 4 kg/hectare). Thereafter, they were grown in a green house. Thirty days after the application, the herbicidal effects were evaluated in accordance with the standards as identified in Table 5.

Data set [2] concerns smallflower flatsedge. The description is as above. Conditions: evaluated thirty days after application. Set-up: key: 5: Withered; 4.5: Herbicidal effect (or phytotoxicity) in a range of 90 to 99%; 4: Herbicidal effect (or phytotoxicity) in a range of 80 to 89%; 3.5: Herbicidal effect (or phytotoxicity) in a range of 70 to 79%; 3: Herbicidal effect (or phytotoxicity) in a range of 60 to 69%; 2.5: Herbicidal effect (or phytotoxicity) in a range of 50 to 59%; 2: Herbicidal effect (or phytotoxicity) in a range of 40 to 49%; 1.5: Herbicidal effect (or phytotoxicity) in a range of 30 to 39%; 1: Herbicidal effect (or phytotoxicity) in a range of 20 to 29%; 0.5: Herbicidal effect (or phytotoxicity) in a range of 1 to 19%; 0: No herbicidal effect (or no phytotoxicity). The class given is in vivo, Cvperus diffcrmis L. Here is the method:
as §1

Data set [3] concerns monochoria. The description is as above. The class given is in vivo, Monochoria vaginalis Presl. Set-up: key: 5: Withered; 4.5: Herbicidal effect (or phytotoxicity) in a range of 90 to 99%; 4: Herbicidal effect (or phytotoxicity) in a range of 80 to 89%; 3.5: Herbicidal effect (or phytotoxicity) in a range of 70 to 79%; 3: Herbicidal effect (or phytotoxicity) in a range of 60 to 69%; 2.5: Herbicidal effect (or phytotoxicity) in a range of 50 to 59%; 2: Herbicidal effect (or phytotoxicity) in a range of 40 to 49%; 1.5: Herbicidal effect (or phytotoxicity) in a range of 30 to 39%; 1: Herbicidal effect (or phytotoxicity) in a range of 20 to 29%; 0.5: Herbicidal effect (or phytotoxicity) in a range of 1 to 19%; 0: No herbicidal effect (or no phytotoxicity). The settings on record: evaluated thirty days after application. Here is the method: as §1

In data set [4] the test system is Japanese bulrush. The description is as above. The data set is classed as in vivo, Scir^pus juncoides Roxb. The arrangement: key: 5: Withered; 4.5: Herbicidal effect (or phytotoxicity) in a range of 90 to 99%; 4: Herbicidal effect (or phytotoxicity) in a range of 80 to 89%; 3.5: Herbicidal effect (or phytotoxicity) in a range of 70 to 79%; 3: Herbicidal effect (or phytotoxicity) in a range of 60 to 69%; 2.5: Herbicidal effect (or phytotoxicity) in a range of 50 to 59%; 2: Herbicidal effect (or phytotoxicity) in a range of 40 to 49%; 1.5: Herbicidal effect (or phytotoxicity) in a range of 30 to 39%; 1: Herbicidal effect (or phytotoxicity) in a range of 20 to 29%; 0.5: Herbicidal effect (or phytotoxicity) in a range of 1 to 19%; 0: No herbicidal effect (or no phytotoxicity). The settings on record: evaluated thirty days after application. Here is the method:
as §1

Data set [5] deals with barnyardgrass. Put plainly: Test Example 2: herbicidal test for selectivity between rice and barnyardgrass (herbicidal effects). The settings on record: barnyardgrass of 2-leaf stage, thirty days after application. The class given is in vivo, Echinochloa crus-galli L. Here is the method:
(§2) Into each 1/5000 are Wager pot, paddy soil was filled and puddled, then seeds of barnyardgrass were sown and grown until they reached 2-leaf stage. The barnyardgrass of 2-leaf stage was thinned out to adjust the number of barnyardgrass to fifteen per pot, and rice seedlings of 2-leaf stage were transplanted in the same pot. […] Thereafter, they were grown in a green house, and thirty days after the application, the herbicidal effects and phytotoxicity were evaluated in accordance with the standards as identified in Table 5.

Data set [6] concerns Paddy rice. In words: Test Example 2: herbicidal test for selectivity between rice and barnyardgrass (phytotoxicity). Conditions: thirty days after application. The class given is in vivo. Here is the method: as §2
The nature of data set [7]: Herbicidal activity of the prior-art compound, used in the same manner as the compound of the invention (general statement). The data set is classed as in vivo. The settings on record: used in the same manner as the compound of the present invention.
Where [8] appears, read: dose of the active ingredient 4 kg/hectare, wettable powder applied to water surface one day after sowing.
[9] abbreviates: water treatment in paddy field pot, dose of active ingredient 4 kg/hectare.

In the case of `C=CCNC(=O)NOc1cc(Cl)ccc1Cl` [Compound No. 2, 1-Allyl-3-(2,5-dichlorophenoxy) urea], the “Herbicidal effects Barnyard grass” value in data set [1] (setting [8]), in data set [5] (Dose 0.5 kg/Ha) and in data set [5] (Dose 1 kg/Ha) was 5 in each case. The “Herbicidal effects Small flower flatsedge” value in data set [2] (setting [8]) worked out at 5. Moreover, the “Herbicidal effects Monochoria” value in data set [3] (setting [8]) stood at 5. Also, in data set [4] (setting [8]), the “Herbicidal effects Japanese bulrush” value was 5. For the same compound, the “Phytotoxicity Paddy rice” value is reported as 0 in data set [6] (Dose 0.5 kg/Ha, transplanted rice seedlings of 2-leaf stage) and 1 (Herbicidal effect (or phytotoxicity) in a range of 20 to 29%) in data set [6] (Dose 1 kg/Ha, transplanted rice seedlings of 2-leaf stage).
On to “3-(3,5-Dichlorophenoxy)-1,1-dimethyl urea trichloroacetate [Compound No. 184]”, for which, in data set [1] (setting [9]), the “Herbicidal effects Barnyard grass” value worked out at 5. Also, the “Herbicidal effects Small flower flatsedge” value in data set [2] (setting [9]) is 5. Further, the “Herbicidal effects Monochoria” value in data set [3] (setting [9]) is recorded as 5. The “Herbicidal effects Japanese bulrush” value in data set [4] (setting [9]) is listed as 5.
As for `NC(=O)NOc1cccc(Cl)c1` [Comparative Compound], in data set [1] (setting [9]), the “Herbicidal effects Barnyard grass” value came out at 0. Besides, the “Herbicidal effects Small flower flatsedge” value in data set [2] (setting [9]) turned out to be 0. Besides, the “Herbicidal effects Monochoria” value in data set [3] (setting [9]) amounted to 0. Also, in data set [4] (setting [9]), the “Herbicidal effects Japanese bulrush” value turned out to be 0.
With `CN(C)C(=O)Nc1ccc(Cl)c(Cl)c1` [DCMU, reference compound], the “Herbicidal effects Barnyard grass” value in data set [5] (Dose 0.25 kg/Ha, water surface application) is 3 (Herbicidal effect (or phytotoxicity) in a range of 60 to 69%); in data set [5] (Dose 0.5 kg/Ha, water surface application), 5; in data set [5] (Dose 1 kg/Ha, water surface application), 5. The “Phytotoxicity Paddy rice” value is on record as 2 (Herbicidal effect (or phytotoxicity) in a range of 40 to 49%) in data set [6] (Dose 0.25 kg/Ha, rice seedlings of 2-leaf stage transplanted, water surface application); 4 (Herbicidal effect (or phytotoxicity) in a range of 80 to 89%) in data set [6] (Dose 0.5 kg/Ha, rice seedlings of 2-leaf stage transplanted, water surface application); 5 in data set [6] (Dose 1 kg/Ha, rice seedlings of 2-leaf stage transplanted, water surface application).
`O=C(NOc1cccc(Cl)c1Cl)NC1CCCCC1` [Compound No. 3, 1-Cyclohexyl-3-(2,3-dichlorophenoxy) urea]: the “Herbicidal effects Barnyard grass” value in data set [1] (setting [8]) worked out at 5. Also, the “Herbicidal effects Small flower flatsedge” value in data set [2] (setting [8]) is given as 5. Besides, in data set [3] (setting [8]), the “Herbicidal effects Monochoria” value came out at 5. In addition, the “Herbicidal effects Japanese bulrush” value in data set [4] (setting [8]) came out at 5.
Consider `NC(=O)NOc1cccc(Cl)c1` [m-chlorophenoxy urea], for which, in data set [7], the herbicidal activites entry was “does not show any herbicidal activites”.
Regarding “3-(2,5-Dichlorophenoxy)-1,1-dimethyl urea trichloroacetate [Compound No. 185]”, in data set [1] (setting [9]), the “Herbicidal effects Barnyard grass” value was determined as 5. Besides, the “Herbicidal effects Small flower flatsedge” value in data set [2] (setting [9]) turned out to be 5. In addition, the “Herbicidal effects Monochoria” value in data set [3] (setting [9]) stood at 5. Also, the “Herbicidal effects Japanese bulrush” value in data set [4] (setting [9]) was 5.
